Measured values published in US6469037B2, “Prophylactic or therapeutic drug for renal diseases” (Takeda Chemical Industries, Ltd., priority 1993, dated 2002).

Legend:
in vivo = conditions: both sexes, po
Method: Acute Toxicity Test Compound 1: (±)-1-(cyclohexyloxycarbonyloxy)ethyl 2-ethoxy-1-[[2′-(1H-tetrazole-5-yl)biphenyl-4-yl]methyl]-1H-benzimidazole-7-carboxylate The LD50 of compound 1 is 2,000 mg/kg or more for 4-week-old Jcl:ICR mice (males and females) and for 5-week-old Jcl:Wister rats (males and females) via single oral administration.

Wistar fatty rats = test: Antiproteinuric action in rats with non-insulin-dependent diabetes (Wistar fatty rats); type: in vivo
Excerpt: Antiproteinuric action in rats with non-insulin-dependent (NIDD) diabetes (Wistar fatty rats) (Ikeda, H., Shino, A., Matsuo, T., Iwatsuka, H., and Suzuoki, Z.: Diabetes, 30, 1045 (1981) or Kava, R. A., West, D. B., Lukasik, V. A., and Greenwood, M. R. C: Diabetes, 38,159 (1989) Compound 1: (±)-1-(cyclohexyloxycarbonyloxy)ethyl 2-ethoxy-1-[[2′-(1H-tetrazole-5-yl)biphenyl-4-yl]methyl]-1H-benzimidazole-7-carboxylate Method: On the basis of blood glucose level and urinary protein content, 11-week-old Wistar fatty rats were divided into two groups (vehicle-treated rats and rats treated with 1 mg/kg/day, p.o. of compound 1). Non-diabetic control rats (lean rats) were also used. Compound 1 was suspended in gum-arabic and the suspension was orally administered once a day for ten weeks. At the 2nd, 4th, 6th, 8th and 10th week of the treatment, 24 hour urine was collected. The urine was centrifuged at 3,000 rpm and a portion of the supernatant was desalted on a column (Pharmacia PD10). Urinary total protein content and albumin content were determined by Lowry and ELISA methods, respectively. Results: Table 2 summarizes the results. Urinary total protein content increased in vehicle-treated rats to about three times of the value in lean rats. This increase, however, was reduced to 1.2-1.5 times by the-treatment with compound 1. […] This increase, however, was reduced to 20-30 times by the treatment with compound 1. […] In non-insulin-dependent diabetic models, compound 1 is expected to be effective against diabetic nephropathy by decreasing the urinary protein without affecting the blood glucose level.

[1] = system: rats with subtotally (5/6) nephrectomy; test: Antiproteinuric action in rats with subtotally (5/6) nephrectomy (focal glomerulosclerosis model); type: in vivo
Excerpt: Antiproteinuric action in rats with subtotally (5/6) nephrectomy (focal glomerulorsclerosis model; Meyer, T. W. and Renake, H. G.: Am. J. Physiol. 254, F856 (1988) or Yoshioka, T., Shiraga, H., Yoshida, Y., Fogo. A., Glick, A. D.: J. Clin. Invest. 82, 1614 (1988)) Compound 1: (±)-1-(cyclohexyloxycarbonyloxy)ethyl 2-ethoxy-1-[[2′-(1H-tetrazole-5-yl)biphenyl-4-yl]methyl]-1H-benzmidazole-7-carboxylate Method: Five-week-old male rats were anesthetized by intraperitoneal injection of pentobarbital sodium and ⅔ of the right kidney was removed. One week later, the entire left kidney was removed under similar anesthesia. After two-week breeding, 24-hour urine was collected and the total protein content and albumin content in the urine were determined by the use of A/G-B test (Wako Pure Chemistry Co., Ltd.). On the basis of urinary protein and blood pressure (BP), the rats were divided into two groups (vehicle-treated rats and rats treated with 1 mg/kg/day, p.o. of compound 1). Rats undergoing nephrectomy of the left kidney alone were also used as sham operated rats. Compound 1 was suspended in gum-arabic and the suspension was orally administered once a day for eight weeks. At the 2nd, 4th, 6th and 8th week of the treatment, 24-hour urine was collected. Results: Table 1 summarizes the results. Urinary total protein and albumin began to markedly increase in vehicle-treated rats two weeks after surgery. […] Since compound 1 suppresses aggravation of renal impairment, its efficacy in glomerulonephritis or diabetic nephropathy is expected.

[2] = age 11 weeks (start of treatment, baseline), Wistar fatty rats, n = 6, mean ± standard error
[3] = age 13 weeks, 1 mg/kg/day p.o., mean ± standard error
[4] = age 15 weeks, 1 mg/kg/day p.o., mean ± standard error
[5] = age 17 weeks, 1 mg/kg/day p.o., mean ± standard error
[6] = age 19 weeks, 1 mg/kg/day p.o., mean ± standard error
[7] = age 21 weeks, 1 mg/kg/day p.o., mean ± standard error
[8] = 2 weeks after the first dose, 1 mg/kg/day p.o., mean ± standard error
[9] = 4 weeks after the first dose, 1 mg/kg/day p.o., mean ± standard error
[10] = 6 weeks after the first dose, 1 mg/kg/day p.o., mean ± standard error
[11] = 8 weeks after the first dose, 1 mg/kg/day p.o., mean ± standard error
[12] = Preadministration (baseline), 5/6 nephrectomized rats, n = 9, mean ± standard error

With CCOc1nc2cccc(C(=O)OC(C)OC(=O)OC3CCCCC3)c2n1Cc1ccc(-c2ccccc2-c2nnn[nH]2)cc1 (racemic) [Compound 1, (±)-1-(cyclohexyloxycarbonyloxy)ethyl 2-ethoxy-1-[[2′-(1H-tetrazole-5-yl)biphenyl-4-yl]methyl]-1H-benzimidazole-7-carboxylate] the LD50 (in vivo; Jcl:ICR, mouse) was no less than 2000 mg/kg, the LD50 (in vivo; Jcl:Wister, rat) was no less than 2000 mg/kg and the “Effect on blood glucose level” value (Wistar fatty rats; Wistar fatty rats, 1 mg/kg/day p.o.) was “did not affect blood glucose level”. For the same molecule, the “Urinary albumin content relative to the value in lean rats” value (Wistar fatty rats; Wistar fatty rats, 1 mg/kg/day p.o., vehicle-treated about 100 times) was 20-30 times, the “Urinary total protein content relative to the value in lean rats” value (Wistar fatty rats; Wistar fatty rats, 1 mg/kg/day p.o., vehicle-treated about three times) was 1.2-1.5 times and the Urinary albumin (Wistar fatty rats; [2]) was 6.5 ± 0.4 mg/24 hr. It also gave a Urinary total protein (Wistar fatty rats; [2]) of 101 ± 6 mg/24 hr, a Urinary albumin (Wistar fatty rats; [3]) of 11.2 ± 3.9 mg/24 hr and a Urinary total protein (Wistar fatty rats; [3]) of 69 ± 11 mg/24 hr. It also gave a Urinary albumin (Wistar fatty rats; [4]) of 14.8 ± 6.1 mg/24 hr, a Urinary total protein (Wistar fatty rats; [4]) of 91 ± 12 mg/24 hr and a Urinary albumin (Wistar fatty rats; [5]) of 21.8 ± 8.2 mg/24 hr. For the same molecule, the Urinary total protein (Wistar fatty rats; [5]) was 97 ± 11 mg/24 hr, the Urinary albumin (Wistar fatty rats; [6]) was 10.7 ± 3.9 mg/24 hr and the Urinary total protein (Wistar fatty rats; [6]) was 79 ± 10 mg/24 hr. The Urinary albumin (Wistar fatty rats; [7]) was 15.4 ± 3.7 mg/24 hr, the Urinary total protein (Wistar fatty rats; [7]) was 74 ± 13 mg/24 hr and the Urinary albumin [1, 8] was 6.3 ± 2.9 mg/100 g/24 hr. It also gave a Urinary total protein [1, 8] of 30.9 ± 5.2 mg/100 g/24 hr, a Urinary albumin [1, 9] of 6.8 ± 3.4 mg/100 g/24 hr and a Urinary total protein [1, 9] of 27.7 ± 4.0 mg/100 g/24 hr. The “Urinary total protein and albumin (course versus vehicle-treated rats)” value ([1]; 5/6 nephrectomized rats, 1 mg/kg/day p.o. for eight weeks) was “these parameters did not increase”, the Urinary albumin [1, 10] was 7.4 ± 4.0 mg/100 g/24 hr and the Urinary total protein [1, 10] was 17.6 ± 5.6 mg/100 g/24 hr. For the same molecule, the Urinary albumin [1, 11] was 5.6 ± 2.7 mg/100 g/24 hr, the Urinary total protein [1, 11] was 24.4 ± 2.7 mg/100 g/24 hr and the Urinary albumin [1, 12] was 7.3 ± 2.3 mg/100 g/24 hr. The Urinary total protein [1, 12] was 32.8 ± 5.4 mg/100 g/24 hr.
